# In ChEMBL document CHEMBL3507680, “University of Dundee, Gates Library screen for HepG2 cell viability”:
# Test: Human HepG2 cell viability assay in 384 well format
# Type: toxicity, cell-based
# Parameters: dose 125 nL, time 70.5 hour; cytotoxicity at 70.5 h: concentration not given beside the values
# Conditions: HepG2 cells, read-out: Inhibition
row,SMILES,cytotoxicity at 70.5 h [%]
1,Cc1nc(N2CCN(C(=O)c3ccco3)CC2)c2c(n1)c(C)nn2C,-6.71
2,Cc1nc(N2CCN(C(=O)C3CCCC3)CC2)c2c(n1)c(C)nn2C,-0.908
3,Cc1nc(N2CCN(C(=O)c3ccncc3)CC2)c2c(n1)c(C)nn2C,19.4
4,CC(NC(=O)c1ccc(F)cc1F)c1cnn(C)c1 (stereo not drawn),-4.48
5,Cc1nn(Cn2ccc(C(=O)N3CCCC(C)C3)n2)c(C)c1Cl (stereo not drawn),-5.65
6,CCN1CCCC1(C)c1nc(C)cc(N)n1 (stereo not drawn),-10.7
7,CCC(=O)N1CCC(Cc2cnc(Nc3cnccn3)cn2)CC1,-11.1
8,Cc1cncnc1C1CCN(CCO)CC1,-7.32
9,CCc1nnc(Nc2cc(C)nc(C3CCN(c4ncccn4)C3)n2)s1 (stereo not drawn),3.49
10,COc1ccccc1C1CNCCN1C(C)=O (stereo not drawn),-15.3
11,CN1CCCC1c1nccnc1-c1ccc(C(=O)O)cc1 (stereo not drawn),11
12,COc1ccccc1C1Cn2c(C)cnc2CN1Cc1c[nH]nc1C (stereo not drawn),-12.2
13,COc1cccc(S(=O)(=O)N2C[C@@H](O)[C@H](N(C)C)C2)c1,-15.9
14,O=C(CN1CCNC1=O)NCc1ccc2sccc2c1,-9.13
15,CCN(CC)S(=O)(=O)N1C[C@@H](c2ccccc2)[C@H]2[C@H]1CCCCCN2C,-1.32
16,Cn1nc(-c2ccc(F)cc2)cc1C(=O)NCCn1ccnc1,-10.2
17,COc1ccc(-c2cc(C(=O)NCCCn3ccnc3C)n(C)n2)cc1,-4.65
18,Cc1noc(-c2c[nH]nc2C2CCCN2C(=O)c2ccccc2)c1C (stereo not drawn),-4.46
19,Cn1nccc1CN1CCCC(COc2ccccc2F)C1 (stereo not drawn),-4.6
20,Cc1cncc(C2CCCN2CC(N)=O)n1 (stereo not drawn),-2.96
21,CN(C)c1cccc(C2CCN(C3COCC3O)CC2)n1 (stereo not drawn),-4.45
22,Cc1nccc(N2CCCC2CCNS(C)(=O)=O)n1 (stereo not drawn),-2.97
23,O=C(c1cc2c(s1)CCC2)N1CCC(c2cnccn2)CC1,-6.29
24,NCc1cccc(-c2cccnc2C(=O)NCCN2CCOCC2)c1,-9.72

row,SMILES,cytotoxicity at 70.5 h [%]
1,O=C(c1ccc(-n2cccn2)nc1)N1CCCC(c2cnccn2)C1 (stereo not drawn),-4.09
2,COCCNc1nnc(-c2ccc(C)nc2)s1,1.91
3,O=C(O)c1cncc(Cc2ccccc2F)c1,-6.6
4,O=C(O)c1cncc(Cc2ccc(F)cc2)c1,-7.6
5,O=C(O)c1ccc(Cc2cccc(F)c2)nc1,-3.84
6,O=C(O)c1cncc(Cc2cccc(F)c2)c1,-7.96
7,CNC(=O)C1(C)CCCN1Cc1cnn(C)c1C (stereo not drawn),-8.11
8,CNC(=O)c1cccc(CC2COCCN(Cc3ccsc3)C2)n1 (stereo not drawn),-6.49
9,Fc1cccc(CN2CCC(c3noc(-c4cnccn4)n3)CC2)c1F,-0.815
10,CC(=O)N1Cc2ccccc2OC2(CCN(C(=O)C3CC3)CC2)C1,25.4
11,Cn1c(C(=O)NC(Cc2ccsc2)c2cccnc2)cc(=O)n(C)c1=O (stereo not drawn),-0.464
12,Cc1csc(C(Cc2ccsc2)NC(=O)c2cc(=O)n(C)c(=O)n2C)n1 (stereo not drawn),-4.94
13,COc1cc2cc3c(nc2cc1OC)OCCN(CC1CC1)C3,-2.88
14,COc1cc2cc3c(nc2cc1OC)OCCN(Cc1ccco1)C3,8.51
15,COc1ccc(-c2cc3cccn(CC(=O)N4CCOCC4)c-3n2)cc1,10.5
16,COc1cccc(CNCc2cccnc2)c1,9.83
17,Cc1cccc(N2CCCC2c2nc(C)ncc2CN(C)C)n1 (stereo not drawn),-4.92
18,Cc1ccc(N(C)[C@@H]2CC[C@@H]3CN(C(=O)CC4CCOCC4)C[C@@H]32)nn1,-7.61
19,NCc1cccc(-c2cccnc2C(=O)NCCN2CCCC2)c1,-8.26
20,COCCN1CCCC(Cc2cnc(-c3c(C)nn(C)c3C)cn2)C1 (stereo not drawn),-5.51
21,COCCN1CCCC(c2ncc(C(=O)N3CCOCC3)c(C)n2)C1 (stereo not drawn),1.77
22,CN1CCN(CC2(O)CCCN(C(=O)Cc3cccc(O)c3)CC2)CC1 (stereo not drawn),-12.4
23,COc1cccc(-c2cc(C3CCCNC3)ccn2)c1 (stereo not drawn),3.19
24,CC(=O)N1CCC(C)(c2cc[nH]n2)CC1,-3.17

row,SMILES,cytotoxicity at 70.5 h [%]
1,Cc1ccccc1CC(=O)N1C[C@@H](O)[C@H](N2CCOCC2)C1,3.85
2,Cc1ccccc1CC(=O)N1C[C@@H](O)[C@H](N2CCN(C)CC2)C1,0.191
3,NC(=O)c1cnc(NCC(=O)NCc2ccccc2)c(Cl)c1,-4.1
4,Cc1noc(CCNC(=O)c2ccc(N(C)C)c(F)c2)n1,-3.5
5,Cc1csc(CCNC(=O)c2ccc(N(C)C)c(F)c2)n1,13.6
6,OCCCN1CCCC1c1cccc(Br)c1 (stereo not drawn),-4.27
7,N#Cc1ccc(CS(=O)(=O)NC(=O)c2ccc(C#N)cc2)cc1,-14.8
8,N#Cc1ccc(S(=O)(=O)NC(=O)c2ccc3c(c2)COC3)cc1,-4.81
9,CC(C)c1nnc(NC(=O)NCc2cccnc2NCCN(C)C)s1,4.5
10,NC(=O)c1cnc(NC(=O)CCc2ccco2)c(Cl)c1,-2.14
11,CC(NS(=O)(=O)CCCC#N)c1cccc(-n2cccn2)c1 (stereo not drawn),-10.5
12,CCc1ocnc1C(=O)N1CCN(c2nncc3ccccc23)CC1,-19.4
13,O=C(C1CCOCC1)N(CCc1ccccc1)C1CCOC1 (stereo not drawn),8.62
14,Cc1n[nH]c(-c2ccc(NC(=O)C(C)N3CCN(C)CC3)cc2)n1 (stereo not drawn),2.06
15,Cc1nnc(NCc2ccc(SC(F)F)cc2)o1,14.2
16,Cn1cc(C(NCCc2ccccn2)c2cccc(F)c2)cn1 (stereo not drawn),-5.84
17,CSc1cc2c(cc1NC(=O)N(C)Cc1ccncc1)OCCO2,-2.5
18,Cc1occc1C(=O)NCC(=O)N1CCCC(c2ccccc2)CC1 (stereo not drawn),-3.67
19,COc1cc(C#N)ccc1OCCN1CCC(n2ccnc2)CC1,-7.5
20,Cc1nnc2n1CC(CNCc1nc(-c3ccsc3)no1)CC2 (stereo not drawn),-14.6
21,O=C(CN1CCCc2sccc2C1=O)NC1CCc2nccn2C1 (stereo not drawn),23.3
22,CN(C)c1ccc(NC(=O)CN2CCS(=O)(=O)CC2)cn1,-0.4
23,CC(C)Oc1cccc(CC(=O)NC2CCN(CC(N)=O)CC2)c1,-10.1
24,Cc1nc2cc(=O)[nH]n2c(C)c1CC(=O)NC(C)C,-7.48

row,SMILES,cytotoxicity at 70.5 h [%]
1,Cc1cc(F)ccc1S(=O)(=O)NCc1[nH]ncc1Br,-7.73
2,CCc1nnc2n1CC(CNCc1nc(-c3ccsc3)no1)CC2 (stereo not drawn),-4.57
3,COc1cccc(COC(C)C(=O)NC2CCN(CC(N)=O)CC2)c1 (stereo not drawn),-7.36
4,Cc1ccc(S(=O)(=O)NCc2[nH]ncc2Br)cc1F,-1.86
5,Cc1ccccc1C(C)NC(=O)Cc1c(C)nc2cc(=O)[nH]n2c1C (stereo not drawn),-10.1
6,Brc1cnc(NCCCOCC2CCOC2)nc1 (stereo not drawn),-5.54
7,Brc1cnc(NCCCOC2CCOCC2)nc1,-6.88
8,N#Cc1cn(C2CC2)c(=O)n(Cc2cc(-c3cccs3)on2)c1=O,-6.97
9,CN1CCCN(S(=O)(=O)c2cnn(C)c2)c2cc(Cl)ccc21,-3.72
10,Cc1nnc2n1CC(CNCc1nc(-c3cccs3)no1)CC2 (stereo not drawn),18.6
11,CN1CCCN(S(=O)(=O)c2cn(C)cn2)c2cc(Cl)ccc21,-0.299
12,CN1CCCN(S(=O)(=O)c2cn(C)cn2)c2cc(F)ccc21,4.76
13,CN(C)CC(C)(O)CNC(=O)Nc1sc2ccccc2c1Cl (stereo not drawn),8.3
14,CCOCC(O)CNc1cncc(Br)c1 (stereo not drawn),-1.77
15,CS(=O)(=O)NC1CCN(C(=O)CCC2CCCO2)CC1 (stereo not drawn),-0.0133
16,Brc1ccc(NCCCOC2CCOCC2)nc1,-1.01
17,CCOc1ccc(N(C)Cc2nc(C)c(C)o2)cc1,15.3
18,CCOc1ccc(N(C)Cc2nnc(C3CC3)o2)cc1,-2.24
19,CCN(CCNS(=O)(=O)C1CCOCC1)C(=O)OC(C)(C)C,-5.67
20,CN(Cc1ccc(C#N)cc1)C(=O)c1ccn(C)c(=O)c1,-9.77
21,Cc1cc(C(=O)NC(C)Cc2ccccc2Cl)n(C)n1 (stereo not drawn),-7.08
22,CN(C)CCN(Cc1ccc(C#N)cc1)C(=O)c1ccn(C)c(=O)c1,24.8
23,COCCOc1cccc(CNCc2ccc(-n3cncn3)nc2)c1,-4.01
24,CC(C)(C)OC(=O)N(CCNS(=O)(=O)N1CCOCC1)C1CC1,-3.4

row,SMILES,cytotoxicity at 70.5 h [%]
1,COc1c(C)cnc(CN2CCn3c(C)nnc3C2)c1C,-3.41
2,COC(=O)CNC(=O)c1ccn(-c2ccc(Cl)c(Cl)c2)n1,-2.3
3,CNC(=O)COC(=O)c1ccn(-c2ccc(Cl)c(Cl)c2)n1,24.2
4,COc1c(C)cnc(CN2CCn3c(nnc3C(C)C)C2)c1C,-1.82
5,CS(=O)(=O)NC(=O)c1ccn(-c2ccccc2Cl)n1,-1.86
6,Cc1ncc(CNC(=O)NCC(C)Oc2ccccc2F)s1 (stereo not drawn),-3.22
7,Cc1ncc(CNC(=O)NCc2c(F)cccc2OC(F)F)s1,-0.321
8,O=C(Nc1ccc(-c2csnn2)cc1)NC(CCO)C1CC1 (stereo not drawn),18
9,CNS(=O)(=O)CC(=O)N1CCC(c2cc3ccccc3[nH]2)CC1,1.33
10,O=C(NCc1ccon1)Nc1cc(F)ccc1N1CCCCC1,0.987
11,COC(=O)c1ncccc1N1CCCC1,-2.82
12,CS(=O)(=O)NC(=O)c1ccn(-c2ccc(Cl)c(Cl)c2)n1,-3.09
13,COc1ccc(-c2cc(C3CCCNC3)ccn2)cc1 (stereo not drawn),-12.4
14,O=C(C1CCCC1)N1C[C@@H](c2ccsc2)[C@@H]2CN(C3CCCC3)CC[C@@H]21,-8.32
15,Oc1cc(C2CCNCC2)nc(-c2ccsc2)n1,-4.35
16,CC(C)(C)C(=O)N1C[C@H](c2ccsc2)[C@H]2CN(C3CCCC3)CC[C@H]21,-4.45
17,CN(C)Cc1cc(C2CCCCN2S(=O)(=O)Cc2ccccc2)nn1C (stereo not drawn),-14.1
18,O=C(NC1CCCC1)c1cc(C2CCCNC2)n[nH]1 (stereo not drawn),-3.17
19,O=C(NC1CCCC1)C1(Cc2cc(C3CCOC3)no2)CCNCC1 (stereo not drawn),-5
20,Cc1ccc(C2(CN3CCN(Cc4cncn4C)CC3)CC2)cc1,12.6
21,Cc1cc(Nc2ccccn2)nc(C2CCCN(CCO)C2)n1 (stereo not drawn),-8.92
22,CN1CCCC(c2cncc(C(=O)NCc3ccccc3Cl)n2)C1 (stereo not drawn),-7.68
